One may read the EC50 as the concentration needed to bring the measured effect to its halfway point.

One test deals with T1, apelin receptor (APJ) (Homo sapiens, UniProt P35414).
T1 sequence (P35414 1-380): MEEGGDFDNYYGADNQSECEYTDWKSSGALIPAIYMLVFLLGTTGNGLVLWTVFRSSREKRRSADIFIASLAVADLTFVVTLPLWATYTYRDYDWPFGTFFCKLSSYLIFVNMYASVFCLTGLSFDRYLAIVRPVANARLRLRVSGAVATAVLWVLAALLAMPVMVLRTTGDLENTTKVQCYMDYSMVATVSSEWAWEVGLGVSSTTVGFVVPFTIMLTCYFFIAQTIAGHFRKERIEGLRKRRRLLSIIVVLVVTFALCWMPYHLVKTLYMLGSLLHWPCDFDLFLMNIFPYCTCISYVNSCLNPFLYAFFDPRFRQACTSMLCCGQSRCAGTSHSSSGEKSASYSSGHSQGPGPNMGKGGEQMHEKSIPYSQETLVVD
Nature of the test: In vitro apelin agonist activity (methods of Giddings et al., Apelin-13 as positive control). To be noted: EC50 (nM) Ave, in vitro apelin agonist activity, methods of Giddings et al., Apelin-13 as positive control. In kind it is cell-based. The text has this:
Characterization of the Apelin Agonist Activity of the Compounds
1:39-47, the contents of which are hereby incorporated by reference in its entirety. Using the methods described in Giddings et al. and Apelin-13 as a positive control.
Consider `O=C(O)C[C@H](CCN1CC(F)(F)C(F)(F)C(F)(F)C1)NC(=O)c1cc(-c2ccccc2C(F)(F)F)n(C2CCCC2)n1` [compound 566, (3S)-3-({1-cyclopentyl-5-[2-(trifluoromethyl)phenyl]-1H-pyrazol-3-yl}formamido)-5-(3,3,4,4,5,5-hexafluoropiperidin-1-yl)pentanoic acid], for which the EC50 amounted to 3050 nM.

The test is the same for the next values; noted with them: in vitro apelin agonist activity, methods of Giddings et al., Apelin-13 as positive control; read-out: EC50 (nM) Ave.
In the case of `CC1(NC(=O)C[C@H](CC(=O)N2CCCCC2)NC(=O)c2cc(-c3ccccc3C(F)(F)F)n(C3CCCC3)n2)COC1` [compound 550, (3R)-3-({1-cyclopentyl-5-[2-(trifluoromethyl)phenyl]-1H-pyrazol-3-yl}formamido)-N-(3-methyloxetan-3-yl)-5-oxo-5-(piperidin-1-yl)pentanamide], the EC50 amounted to 8680 nM. Turning to `O=C(O)C[C@H](CCN1CCCC(F)(F)C1)NC(=O)c1cc(-c2ccccc2C(F)(F)F)n(C2CCC2)n1` [compound 552, (3S)-3-({1-cyclobutyl-5-[2-(trifluoromethyl)phenyl]-1H-pyrazol-3-yl}formamido)-5-(3,3-difluoropiperidin-1-yl)pentanoic acid], the EC50 was found to be 167 nM.

As for `O=C(O)C[C@H](CCN1CCCC(F)(F)C1)NC(=O)c1cc(-c2ccccc2C(F)(F)F)n(C2CCOCC2)n1` [compound 553, (3S)-5-(3,3-difluoropiperidin-1-yl)-3-{[1-(oxan-4-yl)-5-[2-(trifluoromethyl)phenyl]-1H-pyrazol-3-yl]formamido}pentanoic acid], the EC50 worked out at 1480 nM. On the same count and under the same terms, as for `O=C(O)C[C@H](CCN1CCCC(F)(F)C1)NC(=O)c1cc(-c2ccc(F)cc2C(F)(F)F)n(C2CCCC2)n1` [compound 554], the figure is 126 nM. The same measure, in the same setting: as for `O=C(O)C[C@H](CCN1CCCC(F)(F)C1)NC(=O)c1cc(-c2ccc(Cl)cc2C(F)(F)F)n(C2CCCC2)n1` [compound 555, (3S)-3-({5-[4-chloro-2-(trifluoromethyl)phenyl]-1-cyclopentyl-1H-pyrazol-3-yl}formamido)-5-(3,3-difluoropiperidin-1-yl)pentanoic acid], the figure is 1570 nM; as for `O=C(O)C[C@H](CCN1CCCC(F)(F)C1)NC(=O)c1cc(-c2c(Cl)cccc2C(F)(F)F)n(C2CCCC2)n1` [compound 556, (3S)-3-({-[2-chloro-6-(trifluoromethyl)phenyl]-1-cyclopentyl-1H-pyrazol-3-yl}formamido)-5-(3,3-difluoropiperidin-1-yl)pentanoic acid], above 10 nM; as for `O=C(O)C[C@H](CCN1CCCC(F)(F)C1)NC(=O)c1cc(-c2ccccc2C(F)(F)F)n(CC2CC2)n1` [compound 557, (3S)-3-{[1-(cyclopropylmethyl)-5-[2-(trifluoromethyl)phenyl]-1H-pyrazol-3-yl]formamido}-5-(3,3-difluoropiperidin-1-yl)pentanoic acid], 401 nM.

For `CN(C(=O)[C@@H](CC(=O)O)NC(=O)c1cc(-c2ccccc2C(F)(F)F)n(C2CCCC2)n1)C1CCCCC1` [compound 558, (3R)-3-[cyclohexyl(methyl)carbamoyl]-3-({1-cyclopentyl-5-[2-(trifluoromethyl)phenyl]-1H-pyrazol-3-yl}formamido)propanoic acid], the EC50 was determined as 1170 nM.

For `O=C(O)C[C@@H](NC(=O)c1cc(-c2ccccc2C(F)(F)F)n(C2CCCC2)n1)C(=O)NC1CCOCC1` [compound 559, (3R)-3-({1-cyclopentyl-5-[2-(trifluoromethyl)phenyl]-1H-pyrazol-3-yl}formamido)-3-[(oxan-4-yl)carbamoyl]propanoic acid], the EC50 stood at 596 nM. Regarding `O=C(O)C[C@@H](NC(=O)c1cc(-c2ccccc2C(F)(F)F)n(C2CCCC2)n1)C(=O)Nc1ccc(F)cc1` [compound 560, (3R)-3-({1-cyclopentyl-5-[2-(trifluoromethyl)phenyl]-1H-pyrazol-3-yl}formamido)-3-[(4-fluorophenyl)carbamoyl]propanoic acid], the EC50 stood at 738 nM. As to `O=C(N[C@@H]1CC(=O)N(c2ccc(F)cc2)C1=O)c1cc(-c2ccccc2C(F)(F)F)n(C2CCCC2)n1` [compound 563, 1-cyclopentyl-N-[(3R)-1-(4-fluorophenyl)-2,5-dioxopyrrolidin-3-yl]-5-[2-(trifluoromethyl)phenyl]-1H-pyrazole-3-carboxamide], the EC50 was above 10000 nM.

For the compound `COCCN(C)C(=O)[C@H](CCc1ccccc1)NC(=O)c1nc(-c2ncccc2C(F)(F)F)n(C2CCCC2)n1` [compound 564], the EC50 is 982 nM. Still for that read-out and setting: the figure for `CC(C)Cn1nc(C(=O)N[C@@H](CCN2CCCC(F)(F)C2)CC(=O)O)cc1-c1ccccc1C(F)(F)F` [compound 565, (3S)-5-(3,3-difluoropiperidin-1-yl)-3-{[1-(2-methylpropyl)-5-[2-(trifluoromethyl)phenyl]-1H-pyrazol-3-yl]formamido}pentanoic acid] is 544 nM; for `CC(C[C@@H](CC(=O)O)NC(=O)c1cc(-c2ccccc2C(F)(F)F)n(C2CCCC2)n1)N1CCC(F)(F)C1` (stereo partly drawn) [compound 567, (3S)-3-({1-cyclopentyl-5-[2-(trifluoromethyl)phenyl]-1H-pyrazol-3-yl}formamido)-5-(3,3-difluoropyrrolidin-1-yl)hexanoic acid] it is 648 nM; for `CC(C)(C)Cn1nc(C(=O)N[C@@H](CCN2CCCC(F)(F)C2)CC(=O)O)cc1-c1ccccc1C(F)(F)F` [compound 568, (3S)-5-(3,3-difluoropiperidin-1-yl)-3-{[1-(2,2-dimethylpropyl)-5-[2-(trifluoromethyl)phenyl]-1H-pyrazol-3-yl]formamido}pentanoic acid] it is above 10000 nM.

On to `COCCN(C)C(=O)[C@H](COc1ccccc1)NC(=O)c1cc(-c2ccccc2C(F)(F)F)n(C2CCCC2)n1` [compound 570, (2S)-2-({1-cyclopentyl-5-[2-(trifluoromethyl)phenyl]-1H-pyrazol-3-yl}formamido)-N-(2-methoxyethyl)-N-methyl-3-phenoxypropanamide], for which the EC50 worked out at 4250 nM. `O=C(O)C[C@H](CCN1CCCC(F)(F)C1)NC(=O)c1cc(-c2ccccc2C(F)(F)F)n(CC2CCC2)n1` [compound 571, (3S)-3-{[1-(cyclobutylmethyl)-5-[2-(trifluoromethyl)phenyl]-1H-pyrazol-3-yl}formamido}-5-(3,3-difluoropiperidin-1-yl)pentanoic acid]: the EC50 stood at 130 nM.

As for `C[C@@H](C[C@@H](CC(=O)O)NC(=O)c1cc(-c2ccccc2C(F)(F)F)n(C2CCCC2)n1)N1CCC(F)(F)C1` [compound 572, (3S,5S)-3-({1-cyclopentyl-5-[2-(trifluoromethyl)phenyl]-1H-pyrazol-3-yl}formamido)-5-(3,3-difluoropyrrolidin-1-yl)hexanoic acid], the EC50 was determined as 124 nM. With `CC(C[C@@H](CC(=O)NC1CCC1)NC(=O)c1cc(-c2ccccc2C(F)(F)F)n(C2CCCC2)n1)N1CCC(F)(F)C1` (stereo partly drawn) [compound 573, (3S)-N-cyclobutyl-3-({1-cyclopentyl-5-[2-(trifluoromethyl)phenyl]-1H-pyrazol-3-yl}formamido)-5-(3,3-difluoropyrrolidin-1-yl)hexanamide], the EC50 was 299 nM.

On to `O=C(O)C[C@H](CCN1CC(F)(F)C(F)(F)C1)NC(=O)c1cc(-c2ccccc2C(F)(F)F)n(C2CCCC2)n1` [compound 574, (3S)-3-({1-cyclopentyl-5-[2-(trifluoromethyl)phenyl]-1H-pyrazol-3-yl}formamido)-5-(3,3,4,4-tetrafluoropyrrolidin-1-yl)pentanoic acid], for which the EC50 is 981 nM. Turning to `C[C@H](C[C@@H](CC(=O)O)NC(=O)c1cc(-c2ccccc2C(F)(F)F)n(C2CCCC2)n1)N1CCCC(F)(F)C1` [compound 575, (3S,5R)-3-({1-cyclopentyl-5-[2-(trifluoromethyl)phenyl]-1H-pyrazol-3-yl}formamido)-5-(3,3-difluoropiperidin-1-yl)hexanoic acid], the EC50 was 91 nM. Turning to `C[C@@H](C[C@@H](CC(=O)O)NC(=O)c1cc(-c2ccccc2C(F)(F)F)n(C2CCCC2)n1)N1CCCC(F)(F)C1` [compound 576, (3S,5S)-3-({1-cyclopentyl-5-[2-(trifluoromethyl)phenyl]-1H-pyrazol-3-yl}formamido)-5-(3,3-difluoropiperidin-1-yl)hexanoic acid], the EC50 was 1370 nM. Consider `O=C(N[C@@H](CC1CCCCC1)C(=O)O)c1cc(-c2ccccc2C(F)(F)F)n(C2CCCC2)n1` [compound 577, (2S)-3-cyclohexyl-2-({1-cyclopentyl-5-[2-(trifluoromethyl)phenyl]-1H-pyrazol-3-yl}formamido)propanoic acid], for which the EC50 turned out to be 1030 nM.

For the compound `O=C(O)C[C@H](CCN1CCC(C(F)(F)F)C1)NC(=O)c1cc(-c2ccccc2C(F)(F)F)n(C2CCCC2)n1` (stereo partly drawn) [compound 578, (3S)-3-({1-cyclopentyl-5-[2-(trifluoromethyl)phenyl]-1H-pyrazol-3-yl}formamido)-5-[3-(trifluoromethyl)pyrrolidin-1-yl]pentanoic acid], the EC50 is 78 nM. Regarding `O=C(O)C[C@@H](CCN1CCCC(F)(F)C1)NC(=O)c1cc(-c2ccccc2C(F)(F)F)n(C2CCCC2)n1` [compound 579, (3R)-3-({1-cyclopentyl-5-[2-(trifluoromethyl)phenyl]-1H-pyrazol-3-yl}formamido)-5-(3,3-difluoropiperidin-1-yl)pentanoic acid], the EC50 stood at 1870 nM.
